According to patent US20230416275A1, “MODULATORS OF CYSTIC FIBROSIS TRANSMEMBRANE CONDUCTANCE REGULATOR” (VERTEX PHARMACEUTICALS INCORPORATED, priority 2020, published 2023):

Legend:
[1] = biological target: CFTR-mediated chloride transport in human intestinal epithelial enteroid cells (Homo sapiens, UniProt P13569); experiment: Membrane potential dye, Enteroid Assay A; type: cell-based; settings: for Ent. A Max Activity (%): % of chloride transport of triple combination control (3 μM N-[(6-amino-2-pyridyl)sulfonyl]-6-(3-fluoro-5-isobutoxy-phenyl)-2-[(4S)-2,2,4-trimethylpyrrolidin-1-yl]pyridine-3-carboxamide, 3 μM tezacaftor, 300 nM acute ivacaftor); for EC50: enteroid cells, 18-24 hours incubation, acute 10 μM forskolin and 300 nM ivacaftor, read-out: Ent. A EC50
CFTR-mediated chloride transport in human intestinal epithelial enteroid cells, sequence (P13569 with tags, fused parts or gaps DEL508-508): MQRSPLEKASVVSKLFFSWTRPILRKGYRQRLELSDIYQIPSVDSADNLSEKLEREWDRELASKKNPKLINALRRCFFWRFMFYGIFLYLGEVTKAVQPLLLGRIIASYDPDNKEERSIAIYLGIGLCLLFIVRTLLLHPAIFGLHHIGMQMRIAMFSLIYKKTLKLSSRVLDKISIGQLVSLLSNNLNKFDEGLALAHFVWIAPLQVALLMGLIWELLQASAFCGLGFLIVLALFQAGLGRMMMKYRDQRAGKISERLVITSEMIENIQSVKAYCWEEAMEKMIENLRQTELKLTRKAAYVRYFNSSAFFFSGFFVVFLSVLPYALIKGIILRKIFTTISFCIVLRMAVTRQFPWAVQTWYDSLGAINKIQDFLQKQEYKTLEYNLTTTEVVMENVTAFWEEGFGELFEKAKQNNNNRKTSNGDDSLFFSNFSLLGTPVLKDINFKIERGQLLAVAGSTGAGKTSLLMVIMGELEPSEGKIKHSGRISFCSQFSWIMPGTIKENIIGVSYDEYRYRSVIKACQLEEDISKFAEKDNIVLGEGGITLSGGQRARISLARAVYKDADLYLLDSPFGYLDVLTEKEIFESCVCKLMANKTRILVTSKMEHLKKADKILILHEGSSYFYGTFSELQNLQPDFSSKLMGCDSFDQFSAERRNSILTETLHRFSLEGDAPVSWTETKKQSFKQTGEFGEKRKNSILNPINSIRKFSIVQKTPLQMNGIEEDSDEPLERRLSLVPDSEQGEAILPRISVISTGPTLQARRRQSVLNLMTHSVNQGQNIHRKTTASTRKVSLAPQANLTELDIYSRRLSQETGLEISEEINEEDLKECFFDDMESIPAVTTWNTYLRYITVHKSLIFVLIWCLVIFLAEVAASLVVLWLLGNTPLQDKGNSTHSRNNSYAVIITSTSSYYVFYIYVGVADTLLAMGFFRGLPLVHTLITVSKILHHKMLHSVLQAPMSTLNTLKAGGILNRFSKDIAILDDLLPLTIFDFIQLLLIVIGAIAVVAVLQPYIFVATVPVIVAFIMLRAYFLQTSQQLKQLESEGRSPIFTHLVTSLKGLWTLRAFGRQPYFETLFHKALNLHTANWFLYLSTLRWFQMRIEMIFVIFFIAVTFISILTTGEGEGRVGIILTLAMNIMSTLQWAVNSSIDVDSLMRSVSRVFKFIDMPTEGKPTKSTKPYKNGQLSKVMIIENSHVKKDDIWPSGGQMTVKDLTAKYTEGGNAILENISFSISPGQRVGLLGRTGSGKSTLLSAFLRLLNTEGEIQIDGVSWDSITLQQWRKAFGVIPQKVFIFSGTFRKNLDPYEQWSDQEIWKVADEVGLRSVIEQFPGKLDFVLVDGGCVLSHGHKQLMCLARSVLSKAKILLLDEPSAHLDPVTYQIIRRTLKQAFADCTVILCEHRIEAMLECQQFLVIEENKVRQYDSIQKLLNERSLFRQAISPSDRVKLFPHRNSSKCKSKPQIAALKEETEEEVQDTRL
Experimental: Base medium (ADF+++) consisted of Advanced DMEM/Ham's F12, 2 mM Glutamax, 10 mM HEPES, […] penicillin/streptomycin.
Intestinal enteroid maintenance medium (IEMM) consisted of ADF+++, 1×B27 supplement, 1×N2 supplement, 1.25 mM N-acetyl cysteine, 10 mM Nicotinamide, 50 ng/mL hEGF, 10 nM Gastrin, 1 μg/mL hR-spondin-1, 100 ng/mL hNoggin, TGF-b type 1 inhibitor A-83-01, 100 μg/mL Primocin, 10 μM P38 MAPK inhibitor SB202190.
Bath 1 Buffer consisted of 1 mM MgCl2, 160 mM NaCl, 4.5 mM KCl, 10 mM HEPES, 10 mM Glucose, 2 mM CaCl2.
Chloride Free Buffer consisted of 1 mM Magnesium Gluconate, 2 mM Calcium Gluconate, 4.5 mM Potassium Gluconate, 160 mM Sodium Gluconate, 10 mM HEPES, 10 mM Glucose.
Bath1 Dye Solution consisted of Bath 1 Buffer, 0.04% Pluronic F127, 20 μM Methyl Oxonol, 30 μM CaCCinh-A01, 30 μM Chicago Sky Blue.
Chloride Free Dye Solution consisted of Chloride Free Buffer, 0.04% Pluronic F127, 20 μM Methyl Oxonol, 30 μM CaCCinh-A01, 30 μM Chicago Sky Blue.
Chloride Free Dye Stimulation Solution consisted of Chloride Free Dye Solution, 10 μM forskolin, 100 μM IBMX, and 300 nM Compound III.
Human intestinal epithelial enteroid cells were obtained from the Hubrecht Institute for Developmental Biology and Stem Cell Research, Utrecht, The Netherlands and expanded in T-Flasks as previously described (Dekkers J F, Wiegerinck C L, de Jonge H R, Bronsveld I, Janssens H M, de Winter-de Groot K M, Brandsma A M, de Jong N W M, Bijvelds M J C, Scholte B J, Nieuwenhuis E E S, van den Brink S, Clevers H, van der Ent C K, Middendorp S and M Beekman J M. A functional CFTR assay using primary cystic fibrosis intestinal organoids. Nat Med. 2013 July; 19(7):939-45).
c. Enteroid Cell Harvesting and Seeding
Cells were recovered in cell recovery solution, collected by centrifugation at 650 rpm for 5 minutes at 4° C., resuspended in TrypLE and incubated for 5 minutes at 37° C. Cells were then collected by centrifugation at 650 rpm for 5 minutes at 4° C. and resuspended in IEMM containing 10 μM ROCK inhibitor (RI). The cell suspension was passed through a 40 μm cell strainer and resuspended at 1×10^6 cells/mL in IEMM containing 10 μM RI. Cells were seeded at 5000 cells/well into multi-well plates and incubated for overnight at 37° C., 95% humidity and 5% CO2 prior to assay.
d. Membrane Potential Dye, Enteroid Assay A
Enteroid cells were incubated with test compound in IEMM for 18-24 hours at 37° C., 95% humidity and 5% CO2. […] Briefly, cells were washed 5 times in Bath 1 Buffer. Bath 1 Dye Solution was added, and the cells were incubated for 25 minutes at room temperature. Following dye incubation, cells were washed 3 times in Chloride Free Dye Solution. Chloride transport was initiated by addition of Chloride Free Dye Stimulation Solution and the fluorescence signal was read for 15 minutes. […] Chloride transport was then expressed as a percentage of the chloride transport following treatment with 3 μM N-[(6-amino-2-pyridyl)sulfonyl]-6-(3-fluoro-5-isobutoxy-phenyl)-2-[(4S)-2,2,4-trimethylpyrrolidin-1-yl]pyridine-3-carboxamide, 3 μM (R)-1-(2,2-difluorobenzo[d][1,3]dioxol-5-yl)-N-(1-(2,3-dihydroxypropyl)-6-fluoro-2-(1-hydroxy-2-methylpropan-2-yl)-1H-indol-5-yl)cyclopropanecarboxamide and 300 nM acute N-[2,4-bis(1,1-dimethylethyl)-5-hydroxyphenyl]-1,4-dihydro-4-oxoquinoline-3-carboxamide triple combination control (% Activity).

F508del in NIH 3T3 cells = biological target: T1, F508del in NIH 3T3 cells (Homo sapiens, UniProt P13569, DEL508-508); experiment: 3T3 assay: membrane potential optical assay for F508del correction; type: cell-based, mouse; settings: for EC50: compound incubation 18-24 hours at 37° C., forskolin activation, read-out: 3T3 EC50; for Emax: NIH3T3, F508del NIH 3T3 cells, read-out: 3T3 Max Activity (%)
T1 construct: expressed in transfected cells
T1 sequence (P13569 with tags, fused parts or gaps DEL508-508): as above
From the text: a. Membrane Potential Optical Methods for Assaying F508del Modulation Properties of Compounds
The assay utilizes fluorescent voltage sensing dyes to measure changes in membrane potential using a fluorescent plate reader (e.g., FLIPR III, Molecular Devices, Inc.) as a readout for increase in functional F508del in NIH 3T3 cells. The driving force for the response is the creation of a chloride ion gradient in conjunction with channel activation by a single liquid addition step after the cells have previously been treated with compounds and subsequently loaded with a voltage sensing dye.
b. Identification of Corrector Compounds
To identify correctors of F508del, a single-addition HTS assay format was developed. This HTS assay utilizes fluorescent voltage sensing dyes to measure changes in membrane potential on the FLIPR III as a measurement for increase in gating (conductance) of F508del in F508del NIH 3T3 cells. The F508del NIH 3T3 cell cultures were incubated with the corrector compounds at a range of concentrations for 18-24 hours at 37° C., and subsequently loaded with a redistribution dye. The driving force for the response is a Cl^− ion gradient in conjunction with channel activation with forskolin in a single liquid addition step using a fluorescent plate reader such as FLIPR III.
Bath Solution #1: (in mM) NaCl 160, KCl 4.5, CaCl2 2, MgCl2 1, HEPES 10, pH 7.4 with NaOH.
Chloride-free bath solution: Chloride salts in Bath Solution #1 (above) are substituted with gluconate salts.
NIH3T3 mouse fibroblasts stably expressing F508del are used for optical measurements of membrane potential. The cells are maintained at 37° C. in 5% CO2 and 90% humidity in Dulbecco's modified Eagle's medium supplemented with 2 mM glutamine, 10% fetal bovine serum, 1×NEAA, b-ME, 1× pen/strep, and 25 mM HEPES in 175 cm^2 culture flasks. For all optical assays, the cells were seeded at ˜20,000/well in 384-well Matrigel-coated plates. For the correction assays, the cells are cultured at 37° C. with and without compounds for 16-24 hours.

[2] = efficacy compared to lumacaftor in combination with acutely added 300 nM Ivacaftor

Structure (SMILES)	EC50 (F508del in NIH 3T3 cells; F508del NIH 3T3 cells) [nM]	Emax (F508del in NIH 3T3 cells; [2]) [%]	EC50 [1] [nM]	3T3 Max Activity (%) (F508del in NIH 3T3 cells; F508del NIH 3T3 cells, efficacy compared to lumacaftor in combination with acutely added 300 nM Ivacaftor)	Ent. A Max Activity (%) [1]
Cc1cccc(C)c1-c1cc2nc(n1)NS(=O)(=O)c1cccc(c1)NC(=O)[C@H]1C[C@H](CN(C(=O)NC(C)(C)C)C1)O2 [Compound 43]	3000 to 30000	> 60			+ (+ is <30%)
Cc1cccc(C)c1-c1cc2nc(n1)NS(=O)(=O)c1cccc(c1)NC(=O)[C@H]1CCC[C@H](C1)O2 (single isomer, unassigned) [Compound 68, 5-(2,6-dimethylphenyl)-9,9-dioxo-2-oxa-9λ^6-thia-6,8,15,23-tetraazatetracyclo[15.3.1.13,7.110,14]tricosa-3,5,7(23),10(22),11,13-hexaen-16-one]	< 1000	> 60	3000 to 30000		++ (++ is 30-60%)
Cc1ccc2cc1C(=O)Nc1cccc(c1)S(=O)(=O)Nc1nc(cc(-c3c(C)cccc3C)n1)O2 [Compound 111]	< 1000	> 60	3000 to 30000		++ (++ is 30-60%)
Cc1cccc(C)c1-c1cc2nc(n1)NS(=O)(=O)c1cccc(c1)NC(=O)[C@@H]1C[C@@H](CN(CCC3CC3)C1)O2 [Compound 28]	< 1000	> 60	< 1000		++ (++ is 30-60%)
Cc1cccc(C)c1-c1cc2nc(n1)NS(=O)(=O)c1cccc(c1)NC(=O)[C@@H]1C[C@@H](CN(CCCCC(C)(C)C)C1)O2 [Compound 21]	< 1000	> 60	< 1000		++ (++ is 30-60%)
Cc1cccc(C)c1-c1cc2nc(n1)NS(=O)(=O)c1cccc(c1)NC(=O)c1cc(Cl)cc(c1)O2 [Compound 118]	< 1000	> 60	1000 to 3000		+++ (+++ is >60%)
Cc1cccc(C)c1-c1cc2nc(n1)NS(=O)(=O)c1cccc(c1)NC(=O)[C@@H]1C[C@H](CN(C(=O)OC(C)(C)C)C1)O2 (single isomer, unassigned) [Compound 3]	1000 to 3000	> 60	1000 to 3000		+ (+ is <30%)
Cc1cccc(C)c1-c1cc2nc(n1)NS(=O)(=O)c1cccc(c1)NC(=O)[C@H]1CCC[C@H](C1)O2 (single isomer, unassigned) [Compound 70, 5-(2,6-Dimethylphenyl)-9,9-dioxo-2-oxa-9λ^6-thia-6,8,15,23-tetraazatetracyclo[15.3.1.13,7.110,14]tricosa-3,5,7(23),10(22),11,13-hexaen-16-one]	1000 to 3000		1000 to 3000	+++ (+++ is >60%)	++ (++ is 30-60%)
Cc1cccc(C)c1-c1cc2nc(n1)NS(=O)(=O)c1cccc(c1)NC(=O)[C@H]1C[C@H](CN(CCC(C)(C)C)C1)O2 [Compound 11, (3R,7S)-5-(3,3-Dimethylbutyl)-19-(2,6-dimethylphenyl)-2-oxa-15λ^6-thia-5,9,16,18,21-pentaazatetracyclo[15.3.1.13,7.110,14]tricosa-1(21),10(22),11,13,17,19-hexaene-8,15,15-trione]	< 1000	> 60			+ (+ is <30%)
Cc1cccc(C)c1-c1cc2nc(n1)NS(=O)(=O)c1cccc(c1)NC(=O)[C@H]1C[C@H](CN1C(=O)OC(C)(C)C)O2 [Compound 79]					+ (+ is <30%)
Cc1cccc(C)c1-c1cc2nc(n1)NS(=O)(=O)c1cccc(c1)NC(=O)[C@@H]1C[C@@H](CN(C(=O)C3(C(F)(F)F)CC3)C1)O2 [Compound 36]			< 1000		+++ (+++ is >60%)

Now from value to molecule, other results behind:

EC50 (F508del in NIH 3T3 cells; F508del NIH 3T3 cells) [nM]	Emax (F508del in NIH 3T3 cells; [2]) [%]	EC50 [1] [nM]	3T3 Max Activity (%) (F508del in NIH 3T3 cells; F508del NIH 3T3 cells, efficacy compared to lumacaftor in combination with acutely added 300 nM Ivacaftor)	Structure (SMILES)	Ent. A Max Activity (%) [1]
< 1000	> 60	< 1000		Cc1cccc(C)c1-c1cc2nc(n1)NS(=O)(=O)c1cccc(n1)NC(=O)C1CC(CN(CCC(C)(C)C3CC3)C1)O2 (stereo not shown) [Compound 15, 5-(3-Cyclopropyl-3-methylbutyl)-19-(2,6-dimethylphenyl)-2-oxa-15λ^6-thia-5,9,16,18,21,22-hexaazatetracyclo[15.3.1.13,7.110,14]tricosa-1(21),10,12,14(22),17,19-hexaene-8,15,15-trione]	++ (++ is 30-60%)
< 1000	> 60	< 1000		Cc1cccc(C)c1-c1cc2nc(n1)NS(=O)(=O)c1cccc(c1)NC(=O)[C@@H]1C[C@@H](CN(C(=O)OC(C)(C)C)C1)O2 (single isomer, unassigned) [Compound 2]	+++ (+++ is >60%)
		3000 to 30000		Cc1cccc(C)c1-c1cc2nc(n1)NS(=O)(=O)c1cccc(c1)NC(=O)[C@@H]1C[C@@H](CN(CCN(C)C)C1)O2 [Compound 20]	+ (+ is <30%)
		3000 to 30000		Cc1cccc(C)c1-c1cc2nc(n1)NS(=O)(=O)c1cccc(c1)NC(=O)[C@@H]1C[C@H](O2)C(=O)N(CCC(C)(C)C)C1 [Compound 90]	++ (++ is 30-60%)
		< 1000		CCCCCCN1C[C@@H]2C[C@H](C1)C(=O)Nc1cccc(c1)S(=O)(=O)Nc1nc(cc(-c3c(C)cccc3C)n1)O2 [Compound 41]	+++ (+++ is >60%)
		3000 to 30000		CCN1C[C@@H]2C[C@H](C1)C(=O)Nc1cccc(c1)S(=O)(=O)Nc1nc(cc(-c3c(C)cccc3C)n1)O2 [Compound 39]	+++ (+++ is >60%)
		< 1000		Cc1cccc(C)c1-c1cc2nc(n1)NS(=O)(=O)c1cccc(c1)NC(=O)[C@@H]1C[C@@H](CN(CC3C(C)(C)C3(C)C)C1)O2 [Compound 31]	++ (++ is 30-60%)
